Here are results for four compounds from patent US5756683A, “Immunological detection method” (Novartis Finance Corporation, priority 1991, dated 1998).

This test addresses MAb 4197-70-12. Nature of the test: two-step competitive ELISA; inhibition of MAb binding to carrier-bound antigen (cross-reactivity). The following applies: for I50 (inhibitor concentration that reduces the ELISA signal by 50% in comparison with the control): competitive ELISA; for cross-reactivity: (antigen conc. for 50% inhibition/concentration of the antigen analog for 50% inhibition) × 100: relative to compound of formula (II) = 100. Further details: species or system mouse (Balb/c). The method, then: [antigen concentration for 50% inhibition (I50)/concentration of the
antigen analogs for 50% inhibition (I50)]×100.
The I50 value can be determined, for example, by means of a competitive ELISA assay (see Example 8).
The detection of a compound of formula (II) can be effected by means of a two-step competitive ELISA test.
BSA-conjugated hapten, prepared in accordance with Example 1.2.1, in a 50 mM sodium carbonate buffer (pH 9.6) (200 ng of BSA-conjugated hapten/100 μl of 50 mM sodium carbonate buffer) is first of all adsorbed on microtitre plates (for example Dynatech, type M 129A) and incubated overnight at a temperature of 4° C.
The plates are then washed five times with PBS buffer enriched with 0.1% (v/v) polysorbate 20 (Tween 20) (PBS Tween).
The remaining free binding sites of the solid carrier material are then blocked by the addition of PBS-BSA in the form of a 1% (w/v) solution. After incubation for two hours at 22° C. the plates are washed again with PBS Tween (0.1%).
50 μl of the supernatant of the previously cloned hybridoma cells (in a dilution of from 1:1000 to 1:2000) or 50 μl of the previously purified monoclonal antibodies (40-120 ng/ml) are incubated a) with 950 μl of a standard solution containing an increasing amount of antigen [compound of formula (II)] or of antigen analog, b) with antigen-containing water samples or c) with antigen-containing soil extracts. [All dilutions are carried out in PBS Tween (0.1%)].
After an incubation period of 1 hour at room temperature (22° C.), 200 μl of the antigen/antibody mixture are added to each well in the microtitre plate and the whole batch is incubated for a further one hour. The wells are then washed five times with PBS Tween (0.1%) and charged with 100 μl/well of goat anti-mouse IgG antibody that is conjugated to alkaline phosphatase (dilution 1:1500), and incubated for a period of 1.5 hours.
After washing again, 150 μl/well of the substrate p-nitrophenyl phosphate dissolved in 1 mg/ml of diethanolamine buffer (1 mM, pH 9.8, enriched with 0.5 mM MgCl2 ×6H2 O) are added to the wells.
The intensity of the colour reaction that has occurred is determined at a wavelength of 405 nm. […] All the samples are determined in triplicate.
In order to determine the amount of antigen [[…]] present in a sample, first of all a calibration curve is produced, B/Bo×100 being plotted against the concentration of inhibitor. (Bo represents the absorption capacity measured without the addition of an antigen inhibitor to the antibody, and B is the absorption capacity when antigen inhibitors at various concentrations are added). The I50 value indicates the concentration of the antigen at which the binding of antibody to the solid phase is inhibited by 50%. The I50 value is determined using an ENZFITTER (Leatherbarrow, Elsevier-Biosoft) curve-calculation program based on a four-parameter logistical curve (Raab GM, 1983) and specially adapted to the prevailing conditions. The quantitative determination of antigen in soil or water samples within the context of ELISA is also carried out using the ENZFITTER program, the adaptation of the curve being based on standards that run on any microtitre plate.
^a) Inhibitor concentration that reduces the ELISA signal by 50% in
comparison with the control.
^b) (antigen conc. for 50% inhibition/concentration of the antigen
analog for 50% inhibition) × 100.
(An ELISA detects its analyte on a solid surface through an enzyme-linked reagent.)

With `COc1nc(C)nc(NC(=O)NS(=O)(=O)c2ccccc2CCC(F)(F)F)n1` [Compound of formula (II), N-[2-(3,3,3-trifluoropropyl)-phenylsulfonyl]-N'-(4-methoxy-6-methyl-1,3,5-triazin-2-yl)urea], the “I50 (inhibitor concentration that reduces the ELISA signal by 50% in comparison with the control)” value is 0.8 ng/mL and the “cross-reactivity: (antigen conc. for 50% inhibition/concentration of the antigen analog for 50% inhibition) × 100” value was 100%.
For the compound `COc1nc(C)nc(NC(=O)NS(=O)(=O)c2ccccc2OCCCl)n1` [B], the cross-reactivity in words result is “no cross-reactivity”, the “I50 (inhibitor concentration that reduces the ELISA signal by 50% in comparison with the control)” value is more than 1000 ng/mL and the “cross-reactivity: (antigen conc. for 50% inhibition/concentration of the antigen analog for 50% inhibition) × 100” value was less than 0.1%.
Turning to `COC(=O)c1ccccc1S(=O)(=O)NC(=O)Nc1nc(OC(F)F)cc(OC(F)F)n1` [D], the “I50 (inhibitor concentration that reduces the ELISA signal by 50% in comparison with the control)” value is more than 1000 ng/mL and the “cross-reactivity: (antigen conc. for 50% inhibition/concentration of the antigen analog for 50% inhibition) × 100” value is on record as less than 0.1%.
For `COc1nc(C)nc(NC(=O)NS(=O)(=O)c2ccc(O)cc2OCCCl)n1` [A] the same measures were more than 1000 ng/mL and less than 0.1%.
